Four molecules from patent US7763732B2, “Indole derivatives” (N.V. Organon, priority 2005, dated 2010) can be followed below.

This experiment deals with mice. The experiment can be described thus: Formalin paw test in mice. In kind it is in vivo. The note with it: Mus musculus, intravenous, 5 min before 5% formalin s.c. into hind paw, Phase 2 = 20-30 min after formalin, read-out: ED50, inhibition of nociceptive behaviour of Phase 2. The procedure: Formalin Paw Test In Mice
Four-six groups of six mice were treated with vehicle and one of four to five doses of the test compound (typically between 0.03, 0.1, 3 and 10 μmol/kg), administered intravenously into the tail vein (vehicle: 10% Tween-80 in saline; injection volume 10 ml/kg). This injection was followed 5 minutes later by 20 μl of 5% formalin, which was administered sub-cutaneously to the dorsum of the left hind paw. Immediately after formalin administration the animal was placed in a test chamber and data acquisition, using a detection device (Automated Nociception Analyser (ANA); Department of Anesthesiology, University of California, San Diego), was started, independently for each chamber. The nociceptive behaviour was measured as the number of counts (licking, lifting, biting and flinching actions) detected within the two phases of nociception (Yaksh et al, 2001). The nociceptive behaviour between 0 and 5 min after formalin injection (Phase 1) and between 20 and 30 min after formalin injection (Phase 2) was recorded and number of counts for each mouse, compared to the mean number of counts for the vehicle treated animals, was calculated. Once values for each mouse were obtained, the mean and s.e.m. were calculated for each treatment group. The percent inhibition data were then used to calculate ED50 values for Phase 1 and Phase 2.

In general, ED50 refers to the dose at which the effect has come halfway, by size or by number of responders.

As to `CCc1cccc2c(-c3nsc(CN4CCC(C(=O)NCCO)CC4)n3)cn(CC3CCOCC3)c12` [Example 10A, 7-Ethyl-3-[(5-{4-[(N-{2-hydroxy}ethyl)carboxamido]piperidin-1-yl}methyl)-(1,2,4]-thiadiazol-3-yl)-1-(tetrahydropyran-4-yl)methyl-1H-indole], the ED50 is below 5 µmol/kg.

`CS(=O)(=O)N(CCO)Cc1nc(-c2cn(CC3CCOCC3)c3c(Cl)cccc23)ns1` [Example 15, 7-Chloro-3-({5-[(N-{2-hydroxy}ethyl)-(N-{methylsulfonyl})amino]methyl}-([1,2,4]-thiadiazol-3-yl))-1-(tetrahydropyran-4-yl)methyl-1H-indole]: the ED50 is below 5 µmol/kg.

As to `O=C(NCCO)C1CCN(Cc2nc(-c3cn(CC4CCOCC4)c4c(Cl)cccc34)no2)CC1` [Example 19], the median effective dose (ED50) is below 5 µmol/kg.

Turning to `CN(CC(N)=O)Cc1nc(-c2cn(CC3CCOCC3)c3c(Cl)cccc23)no1` [Example 20, 7-Chloro-3-[(5-{[N-(carboxamido)methyl]-N-methylamino}methyl)-([1,2,4]oxadiazol-3-yl)]-1-(tetrahydropyran-4-yl)methyl-1H-indole], the ED50 is below 5 µmol/kg.
